The results in this text go back to ChEMBL document CHEMBL4052789, “Essential structure of orexin 1 receptor antagonist YNT-707, Part I: Role of the 4,5-epoxy ring for binding with orexin 1 receptor” (Bioorg Med Chem Lett, 2017).

Molecules are shown by their SMILES. The source made the active and inactive calls. The calls are words filed in the database; no cut-off is given here. Bounds are passed on as bounds.

A word on the Ki: it is a dissociation constant, usually derived from enzyme kinetics or from competition with a known ligand. The term IC50 denotes the concentration needed to halve the response being measured.

Assay [1] has as its target T1, Orexin/Hypocretin receptor type 1 (Homo sapiens) (UniProt O43613).
T1 sequence (whole entry): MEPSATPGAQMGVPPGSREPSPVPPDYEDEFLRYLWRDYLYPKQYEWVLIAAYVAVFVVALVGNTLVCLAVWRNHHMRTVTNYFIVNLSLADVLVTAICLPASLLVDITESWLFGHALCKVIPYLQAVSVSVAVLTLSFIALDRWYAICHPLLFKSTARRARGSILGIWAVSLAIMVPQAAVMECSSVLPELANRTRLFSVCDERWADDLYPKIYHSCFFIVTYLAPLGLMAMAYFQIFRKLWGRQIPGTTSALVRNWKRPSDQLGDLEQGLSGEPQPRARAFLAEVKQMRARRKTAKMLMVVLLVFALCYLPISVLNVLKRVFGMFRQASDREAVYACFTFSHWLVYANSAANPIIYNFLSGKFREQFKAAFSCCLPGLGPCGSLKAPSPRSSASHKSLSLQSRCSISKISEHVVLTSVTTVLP
As to the kind of experiment: (§1) Antagonist activity at human OX1R expressed in CHOK1 cells assessed as inhibition of orexin A-induced intracellular Ca2+ release preincubated for 15 mins followed by orexin A addition by Fura 2-AM dye based fluorescence assay. In kind it is functional, cell-based.

The target of assay [2] is T2, Orexin/Hypocretin receptor type 1 (Homo sapiens, UniProt O43613).
T2 sequence (O43613 whole entry): T1 sequence (whole entry)
The description is as §1. The format is functional, cell-based.

In a further assay the target is T3, Orexin receptor type 2 (Homo sapiens, UniProt O43614).
T3 sequence (O43614 whole entry): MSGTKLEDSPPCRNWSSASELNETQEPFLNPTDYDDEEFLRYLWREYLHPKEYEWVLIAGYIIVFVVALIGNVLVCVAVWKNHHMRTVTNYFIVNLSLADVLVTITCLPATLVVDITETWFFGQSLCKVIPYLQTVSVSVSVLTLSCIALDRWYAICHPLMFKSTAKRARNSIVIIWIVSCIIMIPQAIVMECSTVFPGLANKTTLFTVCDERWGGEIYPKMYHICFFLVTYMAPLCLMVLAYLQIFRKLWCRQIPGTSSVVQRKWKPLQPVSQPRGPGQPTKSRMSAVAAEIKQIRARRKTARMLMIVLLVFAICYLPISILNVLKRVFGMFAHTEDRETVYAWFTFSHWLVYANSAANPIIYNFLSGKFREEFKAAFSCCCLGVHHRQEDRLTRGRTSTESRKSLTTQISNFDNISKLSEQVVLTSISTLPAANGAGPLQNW
As to the kind of experiment: Antagonist activity at human OX2R expressed in CHOK1 cells assessed as inhibition of orexin A-induced intracellular Ca2+ release preincubated for 15 mins followed by orexin A addition by Fura 2-AM dye based fluorescence assay. In kind it is functional, cell-based.

The species named for a further assay is Homo sapiens. As to the kind of experiment: Selectivity ratio of Ki for human OX2R to Ki for human OX1R.

Consider `CN(C(=O)/C=C/c1ccoc1)[C@@H]1CC[C@@]2(O)[C@H]3Cc4ccc(OCc5ccccc5)c5c4[C@@]2(CCN3S(=O)(=O)c2ccccc2)[C@H]1O5`, for which the inhibition entry in assay [1] is “inactive”.

On to `COc1ccc2c(c1)[C@]13CCN(S(=O)(=O)c4ccccc4)[C@H](C2)[C@]1(O)CC[C@H](N(C)C(=O)/C=C/c1ccoc1)C3`, for which the Ki in assay [2] came to 11.2 nM; on Orexin receptor type 2, 294 nM. Also, the Ratio Ki in the assay filed under Homo sapiens was determined as 26.1.

On to `COc1ccc2c(c1)[C@]13CCN(S(=O)(=O)c4ccccc4)[C@H](C2)[C@]1(O)CC[C@@H](N(C)C(=O)/C=C/c1ccoc1)C3`, for which the Ki in assay [2] was 31.6 nM. The IC50 on Orexin receptor type 2 was above 10 µM.

As to `COc1ccc2c3c1O[C@H]1[C@H](N(C)C(=O)/C=C/c4ccoc4)CC[C@@]4(O)[C@@H](C2)N(S(=O)(=O)c2ccccc2)CC[C@]314`, the IC50 at Orexin receptor type 2 was above 10 µM.

Turning to `CN(C(=O)/C=C/c1ccoc1)[C@@H]1CC[C@@]2(O)[C@H]3Cc4cccc5c4[C@@]2(CCN3S(=O)(=O)c2ccccc2)[C@H]1O5`, the IC50 in assay [2] is 1910 nM; at Orexin receptor type 2 it was at least 10 µM.

As for `COc1ccc2c3c1O[C@H]1[C@@H](N(C)C(=O)/C=C/c4ccoc4)CC[C@@]4(O)[C@@H](C2)N(S(=O)(=O)c2ccccc2)CC[C@]314`, in assay [2], the Ki was found to be 849 nM. In addition, on Orexin receptor type 2, the IC50 is above 10 µM.
